Data taken from ChEMBL document CHEMBL5120774, “Genome-Mining-Guided Discovery and Characterization of the PKS-NRPS-Hybrid Polyoxyperuin Produced by a Marine-Derived Streptomycete” (2022).
In brackets after ≈: the same amount, converted by molar mass.

Columns and labels:
Assay type in all cases: functional
Staphylococcus aureus = test: Antibacterial activity against Staphylococcus aureus ATCC 25923 assessed as inhibition of bacterial growth incubated for 18 hrs by broth microdilution method
Micrococcus luteus = test: Antibacterial activity against Micrococcus luteus DSM20030 assessed as inhibition of bacterial growth incubated for 18 hrs by broth microdilution method
Escherichia coli = test: Antibacterial activity against Escherichia coli ATCC 35218 assessed as inhibition of bacterial growth incubated for 18 hrs by broth microdilution method
[1] = tested on: Mycolicibacterium smegmatis; test: Antibacterial activity against Mycobacterium smegmatis ATCC 607 assessed as inhibition of bacterial growth incubated for 48 hrs by BacTiter-Glo assay
Listeria monocytogenes = test: Antibacterial activity against Listeria monocytogenes DSM20600 assessed as inhibition of bacterial growth incubated for 48 hrs by BacTiter-Glo assay
Bacillus subtilis = test: Antibacterial activity against Bacillus subtilis DSM10 assessed as inhibition of bacterial growth incubated for 18 hrs by broth microdilution method

Row | Structure (SMILES) | MIC (Staphylococcus aureus) | MIC (Micrococcus luteus) | MIC (Escherichia coli) | MIC [1] | MIC (Listeria monocytogenes) | MIC (Bacillus subtilis)
1 | CC[C@H]1OC(O)(C(C)(O)C(=O)N[C@@H]2C(=O)N3NCCC[C@@H]3C(=O)N(O)[C@@H](C)C(=O)N(C)[C@@H](CC(C)C)C(=O)N3NCCC[C@@H]3C(=O)N(O)CC(=O)OC2C(C)C)CC[C@@H]1C (some centres not stated) | 0.125 µg/mL (≈ 0.146 µM) | < 0.031 µg/mL | > 64 µg/mL | > 64 µg/mL | < 0.031 µg/mL | 0.125 µg/mL (≈ 0.146 µM)
2 | CC[C@H]1OC(O)(C(C)(O)C(=O)N[C@H](C(=O)N2NCCC[C@@H]2C(=O)N(O)[C@@H](C)C(=O)N(C)[C@@H](CC(C)C)C(=O)N2NCCC[C@@H]2C(=O)N(O)CC(=O)O)C(O)C(C)C)CC[C@@H]1C (some centres not stated) | > 64 µg/mL | 32 µg/mL (≈ 36.7 µM) | > 64 µg/mL | > 64 µg/mL | > 64 µg/mL | > 64 µg/mL
